# Test results taken from patent US4335127A, “Piperidinylalkyl quinazoline compounds, composition and method of use” (Janssen Pharmaceutica, N.V., priority 1979, dated 1982).
# What was measured:
# [1] = system: Caudal Artery of the Rat (effect of serotonin); test: Antagonistic Activity on the Effect of Serotonin on the Caudal Artery of the Rat (Test 1); settings: serotonin 40 ng/ml; 5 minutes after adding the drug; rat caudal artery strips
# Description: Caudal arteries from fasted male rats (210-235 g) are used in the test. Two helical strips having a length of 5-6 cm and a width of 2 mm are obtained from each artery and mounted vertically in a 100 ml organ bath containing an oxygenated Krebs-Henseleit solution. Submaximal contractions of the arterial strips are produced by adding single doses of serotonin (40 ng/ml) to the organ bath for 2 minutes with each time an interval of 10 minutes. The amplitude of the contraction is measured before and 5 minutes after adding the drug. After washing out, the agonist is added again three times in order to see whether the contraction is restored and normalized. […] In this connection the ED50 -values are the minimal concentrations of the concerned drugs which reduce the amplitude of the contraction to at least 50% of its normal value.
# [2] = system: lesions in the glandular area of the stomach and distension of the stomach induced by compound 48/80 in rats; test: Gastric lesion test: lesions induced by compound 48/80 (Test 2); type: in vivo, rat (male, Wistar inbred strain); settings: oral, 2 hours before compound 48/80 (1 mg/kg i.v.); stomachs inspected 4 hours after
# Description: (§1) The shock, followed by dead, can be avoided if the rats are pretreated with a classical H 1 antagonist.
# (§2) Male rats of a Wistar inbred strain, weighing 220-250 g, are starved overnight, water being available ad libitum. The test compounds are administered orally as a solution or as a suspension in aqueous medium. A control rat and a "blank" rat receive the test compound. One hour later 5-[4-(diphenylmethyl)-1-piperazinylmethyl]-1-methyl-1H-benzimidazole-2-methanol is administered subcutaneously to all rats at the dose of 2.5 mg/kg. […] Five minutes after the injection the intensity of purple-blue coloration (cyanosis) of the extremities is scored as 0 (absent), +(moderate) or ++(intense). Four hours after the intravenous injection of compound 48/80 the rats are decapitated and the stomachs are removed. Subsequently the stomachs are inspected for distension and contents (blood, fluid, food) and thoroughly rinsed. The macroscopic lesions are scored from 0 to + ++, 0 corresponding to complete absence of visible lesions and the highest score corresponding to reddish rough patches covering more than half the glandular area.
# [3] = system: cyanosis of ears and extremities induced by compound 48/80 in rats; test: Cyanosis of ears and extremities induced by compound 48/80 (Test 2); type: in vivo, rat (male, Wistar inbred strain); settings: Rattus norvegicus, po, 5 min; read-out: Cyanosis ED50 (dose at which cyanosis of ears and extremities is completely absent in 50% of the test rats)
# Description: as §1, §2
# [4] = system: lesions in the glandular area of the stomach and distension of the stomach induced by compound 48/80 in rats; settings: rats treated with compound 48/80; cited from earlier work
# [5] = system: cyanosis of ears and extremities induced by compound 48/80 in rats; settings: rats treated with compound 48/80; cited from earlier work
SMILES,Caudal artery ED50 (minimal concentration which reduces the amplitude of the serotonin-induced contraction to at least 50% of its normal value) [1] [ng/mL],G. lesion ED50 (dose at which distension of the stomach and lesions in the glandular area are completely absent in 50% of the test rats) [2] [mg/kg],ED50 [3] [mg/kg],prevention of the abnormal gastric distension (known serotonin antagonists) [4],prevention of the lesions in the glandular area of the stomach (known serotonin antagonists) [4],prevention of the cyanosis of ears and extremities (known serotonin antagonists) [5]
O=C(c1ccc(F)cc1)C1CCN(CCn2c(=O)[nH]c3cc(Cl)ccc3c2=O)CC1,2,1.25,1.25,–,–,–
CC[C@@H](CO)NC(=O)[C@@H]1C=C2c3cccc4c3c(cn4C)C[C@H]2N(C)C1 [methysergide],–,–,–,prevent completely,prevent completely,prevent completely
O=C(c1ccc(F)cc1)C1CCN(CCCn2c(=O)[nH]c3ccccc3c2=O)CC1,1.25,2.5,–,–,–,–
"O=C(c1ccc(F)cc1)C1CCN(CCN2C(=O)Nc3ccccc3C2c2ccccc2)CC1 (stereo not drawn) [drawing 34: R^6=C6H5, Alk=(CH2)2, Ar=4-FC6H4, 3-[2-[4-(4-fluorobenzoyl)-1-piperidinyl]ethyl]-3,4-dihydro-4-phenyl-2(1H)-quinazolinone]",0.6,0.08,0.08,–,–,–
"O=C1NC(CCN2CCC(C(=O)c3ccc(F)cc3)CC2)Nc2ccccc21 (stereo not drawn) [2-[2-[4-(4-fluorobenzoyl)-1-piperidinyl]ethyl]-2,3-dihydro-4(1H)-quinazolinone]",0.7,2.5,1.25,–,–,–
"O=C(c1ccc(F)cc1)C1CCN(CCn2c(=O)[nH]c3cc(F)ccc3c2=O)CC1 [7-fluoro-3-[2-[4-(4-fluorobenzoyl)-1-piperidinyl]ethyl]-2,4(1H,3H)-quinazolinedione]",0.7,1.25,0.16,–,–,–
COc1ccc(C(=O)C2CCN(CCn3c(=O)[nH]c4ccccc4c3=O)CC2)cc1,2.5,–,–,–,–,–
O=C(c1ccc(Cl)cc1)C1CCN(CCn2c(=O)[nH]c3ccccc3c2=O)CC1,2.5,–,–,–,–,–
"O=C(c1ccc(F)cc1)C1CCN(CCCn2c(=S)[nH]c3ccccc3c2=O)CC1 [3-[3-[4-(4-fluorobenzoyl)-1-piperidinyl]propyl]-2,3-dihydro-2-thioxo-4(1H)-quinazolinone]",2,2.5,0.63,–,–,–
CN1C[C@H](CNC(=O)OCc2ccccc2)C[C@@H]2c3cccc4c3c(cn4C)C[C@H]21 [metergoline],–,–,–,prevent completely,prevent completely,prevent completely
"O=C(c1ccc(F)cc1)C1CCN(CCn2c(=O)[nH]c3ccccc3c2=O)CC1 [3-[2-[4-(4-fluorobenzoyl)-1-piperidinyl]ethyl]-2,4-(1H,3H)-quinazolinedione]",0.7,0.16,0.08,–,–,–
"O=C(c1ccc(F)cc1)C1CCN(CCn2c(=S)[nH]c3ccccc3c2=O)CC1 [3-[2-[4-(4-fluorobenzoyl)-1-piperidinyl]ethyl]-2,3-dihydro-2-thioxo-4(1H)-quinazolinone]",0.6,0.08,0.04,–,–,–
Cn1c(=O)n(CCN2CCC(C(=O)c3ccc(F)cc3)CC2)c(=O)c2ccccc21,0.7,1.25,0.16,–,–,–
"COc1ccc2c(=O)n(CCN3CCC(C(=O)c4ccc(F)cc4)CC3)c(=O)[nH]c2c1 [3-[2-[4-(4-fluorobenzoyl)-1-piperidinyl]ethyl]-7-methoxy-2,4(1H,3H)-quinazolinedione]",0.7,0.31,0.16,–,–,–
"O=C(O)/C=C/C(=O)O.O=C(c1ccc(F)cc1)C1CCN(CCCN2CNc3ccccc3C2=O)CC1 [3-[3-[4-(4-fluorobenzoyl)-1-piperidinyl]propyl]-2,3-dihydro-4-(1H)-quinazolinone (E)-2-butenedioate (1:1)]",10,≥ 2.5,–,–,–,–
Cc1nc2ccccc2c(=O)n1CCN1CCC(C(=O)c2ccc(F)cc2)CC1 [3-[2-[4-(4-fluorobenzoyl)-1-piperidinyl]ethyl]-2-methyl-4(3H)-quinazolinone],0.6,0.16,0.16,–,–,–
O=C(O)/C=C/C(=O)O.O=C(c1ccc(F)cc1)C1CCN(CCCn2cnc3ccccc3c2=O)CC1 [3-[3-[4-(4-fluorobenzoyl)-1-piperidinyl]propyl]-4(3H)-quinazolinone (E)-2-butenedioate (1:1)],5,2.5,–,–,–,–
"Nc1cc(F)ccc1C(=O)C1CCN(CCn2c(=O)[nH]c3ccccc3c2=O)CC1 [3-[2-[4-(2-amino-4-fluorobenzoyl)-1-piperidinyl]ethyl]-2,4(1H,3H)-quinazolinedione]",0.6,1.25,0.16,–,–,–
O=C(c1ccc(F)cc1)C1CCN(CCn2cnc3ccccc3c2=O)CC1 [3-[2-[4-(4-fluorobenzoyl)-1-piperidinyl]ethyl]-4(3H)-quinazolinone],0.6,0.31,0.31,–,–,–
Cc1ccc2[nH]c(=O)n(CCN3CCC(C(=O)c4ccc(F)cc4)CC3)c(=O)c2c1,1.3,2.5,0.63,–,–,–
"O=c1[nH]c2ccccc2c(=O)n1CCN1CCC(C(O)c2ccc(F)cc2)CC1 (stereo not drawn) [3-[2-[4-[(4-fluorophenyl)hydroxymethyl]-1-piperidinyl]ethyl]-2,4(1H,3H)-quinazolinedione]",20,1.25,1.25,–,–,–
"O=C(c1ccc(F)cc1)C1CCN(CCN2CNc3ccccc3C2=O)CC1 [3-[2-[4-(4-fluorobenzoyl)-1-piperidinyl]ethyl]-2,3-dihydro-4(1H)-quinazolinone]",5,≥ 2.5,–,–,–,–
O=c1[nH]c2ccccc2c(=O)n1CCN1CCC(C2(c3ccc(F)cc3)OCCO2)CC1,11,0.31,0.16,–,–,–
"O=C(c1ccc(F)cc1)C1CCN(CCN2C(=O)Nc3ccc(Cl)cc3C2c2ccccc2)CC1 (stereo not drawn) [6-chloro-3-[2-[4-(4-fluorobenzoyl)-1-piperidinyl]ethyl]-3,4-dihydro-4-phenyl-2(1H)-quinazolinone]",–,0.63,0.63,–,–,–
